Measurements from patent US20260132125A1, “PESTICIDALLY ACTIVE FUSED BICYCLIC HETEROAROMATIC COMPOUNDS” (priority 2022, published 2026).

Key:
Format in all cases: in vivo
Diabrotica balteata = assay: Example B2: activity against Diabrotica balteata (corn root worm), maize sprouts; conditions: 96 h, L2 larvae, 4 days after infestation, read-out: effect in at least one of the two categories (mortality or growth inhibition)
Experimental: Maize sprouts placed onto an agar layer in 24-well microtiter plates were treated with aqueous test solutions prepared from 10′000 ppm DMSO stock solutions by spraying. After drying, the plates were infested with L2 larvae (6 to 10 per well). The samples were assessed for mortality and growth inhibition in comparison to untreated samples 4 days after infestation. The following compounds gave an effect of at least 80% in at least one of the two categories (mortality or growth inhibition) at an application rate of 200 ppm: P1, P2, P3, P4, P5, P7, P8, P9, P10, P11, P12, P13, P14, P15, P16, P17, P18, P19, P20, P21, P22, P23, P24, P25, P26, P27, P28, P29, P30, P31, P33, P34, P35, P36, P37, P38, P39, P40, P41, P42, P43, P45, P46, P47, P48, P49, P50, P51, P52, P53, P55, P57, P58, P59, P60, P61, P62, P63, P64, P65, P66, P67, P69, P71, P75, P81, P82, P83.

Spodoptera littoralis = assay: Example B6: activity against Spodoptera littoralis (Egyptian cotton leaf worm), cotton leaf discs; conditions: foliar, 72 h, 200 ppm, L1 larvae, 3 days after infestation, read-out: control (at least one of mortality, anti-feedant effect, growth inhibition)
Experimental: Cotton leaf discs were placed onto agar in 24-well microtiter plates and sprayed with aqueous test solutions prepared from 10′000 ppm DMSO stock solutions. After drying the leaf discs were infested with five L1 larvae. The samples were assessed for mortality, anti-feeding effect, and growth inhibition in comparison to untreated samples 3 days after infestation. Control of Spodoptera littoralis by a test sample is given when at least one of the categories mortality, anti-feedant effect, and growth inhibition is higher than the untreated sample.

Plutella xylostella = assay: Example B5: activity against Plutella xylostella (diamond back moth), artificial diet, eggs; conditions: 192 h, 8 days after infestation, read-out: effect in at least one of the two categories (mortality or growth inhibition)
Experimental: 24-well microtiter plates with artificial diet were treated with aqueous test solutions prepared from 10′000 ppm DMSO stock solutions by pipetting. After drying, Plutella eggs were pipetted through a plastic stencil onto a gel blotting paper and the plate was closed with it. The samples were assessed for mortality and growth inhibition in comparison to untreated samples 8 days after infestation. The following compounds gave an effect of at least 80% in at least one of the two categories (mortality or growth inhibition) at an application rate of 200 ppm: P1, P2, P3, P4, P5, P6, P7, P8, P9, P10, P11, P12, P13, P14, P15, P16, P17, P18, P19, P20, P21, P22, P23, P24, P25, P26, P27, P28, P29, P30, P31, P32, P33, P34, P35, P36, P37, P38, P39, P40, P41, P42, P43, P44, P45, P46, P47, P48, P49, P50, P51, P52, P53, P54, P55, P57, P58, P59, P60, P61, P62, P63, P64, P65, P66, P67, P69, P70, P71, P72, P73, P74, P75, P77, P78, P81, P82, P83.

Chilo suppressalis = assay: Example B1: activity against Chilo suppressalis (striped rice stemborer), artificial diet; conditions: for percent control (mortality, anti-feedant effect or growth inhibition) at 200 ppm: 144 h, L2 larvae, 6 days after infestation, read-out: control (at least one of mortality, anti-feedant effect, growth inhibition)
Experimental: 24-well microtiter plates with artificial diet were treated with aqueous test solutions prepared from 10′000 ppm DMSO stock solutions by pipetting. After drying, the plates were infested with L2 larvae (6-8 per well). The samples were assessed for mortality, anti-feeding effect, and growth inhibition in comparison to untreated samples 6 days after infestation. Control of Chilo suppressalis by a test sample is given when at least one of the categories mortality, anti-feedant effect, and growth inhibition is higher than the untreated sample.

Myzus persicae = assay: Example B4: activity against Myzus persicae (green peach aphid), intrinsic activity; conditions: 120 h, test rate 12 ppm, 5 days after infestation
Experimental: Test compounds prepared from 10′000 ppm DMSO stock solutions were applied by pipette into 24-well microtiter plates and mixed with sucrose solution. The plates were closed with a stretched Parafilm. A plastic stencil with 24 holes was placed onto the plate and infested pea seedlings were placed directly on the Parafilm. The infested plate was closed with a gel blotting paper and another plastic stencil and then turned upside down. The samples were assessed for mortality 5 days after infestation.

Structure (SMILES)	percent effect (mortality or growth inhibition) at 200 ppm (Diabrotica balteata)	percent control (mortality, anti-feedant effect or growth inhibition) at 200 ppm (Spodoptera littoralis)	percent effect (mortality or growth inhibition) at 200 ppm (Plutella xylostella)	percent control (mortality, anti-feedant effect or growth inhibition) at 200 ppm (Chilo suppressalis)	mortality at 12 ppm (Myzus persicae)	mortality at 12.5 ppm (Chilo suppressalis; 12.5 ppm)
CNC(=O)c1cc(-n2ncnc2[C@H](C)Nc2ncnc3c(Cl)cc(I)cc23)ncn1 [Compound P4, 6-[5-[(1S)-1-[(8-chloro-6-iodo-quinazolin-4-yl)amino]ethyl]-1,2,4-triazol-1-yl]-N-methyl-pyrimidine-4-carboxamide]	≥ 80%	≥ 80%	≥ 80%	≥ 80%	≥ 80%	–
CNC(=O)c1cc(-n2ncnc2[C@H](C)N(C)c2ncnc3c(Br)cc(Br)cc23)ncn1 [Compound P11, 6-[5-[(1S)-1-[(6,8-dibromoquinazolin-4-yl)-methyl-amino]ethyl]-1,2,4-triazol-1-yl]-N-methyl-pyrimidine-4-carboxamide]	≥ 80%	≥ 80%	≥ 80%	≥ 80%	≥ 80%	–
CNC(=O)c1cc(-n2ncnc2[C@H](C)Nc2ncnc3c(Br)cc(Br)cc23)ncn1 [Compound P12, 6-[5-[(1S)-1-[(6,8-dibromoquinazolin-4-yl)amino]ethyl]-1,2,4-triazol-1-yl]-N-methyl-pyrimidine-4-carboxamide]	≥ 80%	≥ 80%	≥ 80%	≥ 80%	≥ 80%	–
C[C@H](Nc1ncnc2c(Cl)cc(I)cc12)c1ncnn1-c1cc(C#N)ncn1 [Compound P18, 6-[5-[(1S)-1-[(8-chloro-6-iodo-quinazolin-4-yl)amino]ethyl]-1,2,4-triazol-1-yl]pyrimidine-4-carbonitrile]	≥ 80%	≥ 80%	≥ 80%	≥ 80%	≥ 80%	–
C[C@H](Nc1ncnc2c(C(F)(F)F)cc(Cl)cc12)c1ncnn1-c1cc(C#N)ncn1 [Compound P19, 6-[5-[(1S)-1-[[6-chloro-8-(trifluoromethyl)quinazolin-4-yl]amino]ethyl]-1,2,4-triazol-1-yl]pyrimidine-4-carbonitrile]	≥ 80%	≥ 80%	≥ 80%	≥ 80%	≥ 80%	80%
C[C@H](Nc1ncnc2c(C(F)(F)F)cc(Cl)cc12)c1ncnn1-c1cc(C(=O)NC2CC2)ncn1 [Compound P23, 6-[5-[(1S)-1-[[6-chloro-8-(trifluoromethyl)quinazolin-4-yl]amino]ethyl]-1,2,4-triazol-1-yl]-N-cyclopropyl-pyrimidine-4-carboxamide]	≥ 80%	≥ 80%	≥ 80%	≥ 80%	≥ 80%	–
C[C@H](Nc1ncnc2c(C(F)(F)F)cc(Cl)cc12)c1ncnn1-c1cc(C(=O)NC2CS(=O)(=O)C2)ncn1 [Compound P24, 6-[5-[(1S)-1-[[6-chloro-8-(trifluoromethyl)quinazolin-4-yl]amino]ethyl]-1,2,4-triazol-1-yl]-N-(1,1-dioxothietan-3-yl)pyrimidine-4-carboxamide]	≥ 80%	≥ 80%	≥ 80%	≥ 80%	≥ 80%	–
C[C@H](Nc1ncnc2c(C(F)(F)F)cc(Cl)cc12)c1ncnn1-c1cc(C(=O)NC2CSC2)ncn1 [Compound P25, 6-[5-[(1S)-1-[[6-chloro-8-(trifluoromethyl)quinazolin-4-yl]amino]ethyl]-1,2,4-triazol-1-yl]-N-(thietan-3-yl)pyrimidine-4-carboxamide]	≥ 80%	≥ 80%	≥ 80%	≥ 80%	≥ 80%	–
C[C@H](Nc1ncnc2c(C(F)(F)F)cc(Cl)cc12)c1ncnn1-c1cc(C(=O)NO)ncn1 [Compound P26, 6-[5-[(1S)-1-[[6-chloro-8-(trifluoromethyl)quinazolin-4-yl]amino]ethyl]-1,2,4-triazol-1-yl]pyrimidine-4-carbohydroxamic acid]	≥ 80%	≥ 80%	≥ 80%	≥ 80%	≥ 80%	–
CNC(=O)c1cc(-n2ncnc2[C@H](C)N(C)c2ncnc3c(Cl)cc(I)cc23)ncn1 [Compound P34, 6-[5-[(1S)-1-[(8-chloro-6-iodo-quinazolin-4-yl)-methyl-amino]ethyl]-1,2,4-triazol-1-yl]-N-methyl-pyrimidine-4-carboxamide]	≥ 80%	≥ 80%	≥ 80%	≥ 80%	≥ 80%	–
C[C@H](Nc1ncnc2c(Br)cc(Br)cc12)c1ncnn1-c1ncc(C(N)=O)s1 [Compound P36, 2-[5-[(1S)-1-[(6,8-dibromoquinazolin-4-yl)amino]ethyl]-1,2,4-triazol-1-yl]thiazole-5-carboxamide]	≥ 80%	≥ 80%	≥ 80%	≥ 80%	≥ 80%	–
C[C@H](Nc1ncnc2c(Br)cc(Br)cc12)c1ncnn1-c1cnc(C(=O)NCC#N)cn1 [Compound P72, N-(cyanomethyl)-5-[5-[(1S)-1-[(6,8-dibromoquinazolin-4-yl)amino]ethyl]-1,2,4-triazol-1-yl]pyrazine-2-carboxamide]	–	≥ 80%	≥ 80%	≥ 80%	≥ 80%	–
C[C@H](Nc1ncnc2c(I)cc(Cl)cc12)c1ncnn1-c1cnc(C(=O)NCC#N)cn1 [Compound P73, 5-[5-[(1S)-1-[(6-chloro-8-iodo-quinazolin-4-yl)amino]ethyl]-1,2,4-triazol-1-yl]-N-(cyanomethyl)pyrazine-2-carboxamide]	–	≥ 80%	≥ 80%	≥ 80%	≥ 80%	–
